Experiments:
Format in all cases: cell-based, human
[1] = test system: LNCaP prostate adenocarcinoma cell line; test: DIMSCAN cytotoxicity, fenretinide + L-threo-sphinganines 3:1 (Example B16); conditions: LNCaP.FGC
Procedure: (§1) Cytotoxicity Assay—Once again, cytotoxicity is determined using the DIMSCAN assay system (R. Proffitt et al., Cytometry 24, 204-213 (1996); T. Frgala et al., Mol Cancer Ther. 6:886-97, 2007). The system employs digital imaging microscopy to quantify viable cells, which selectively accumulate fluorescein diacetate to become brightly fluorescent. The system is capable of measuring cytotoxicity over a 4-5 log dynamic range by quenching the residual fluorescence of dead and dying cells with eosin Y and quantifying the total fluorescence of viable cells using digital thresholding. Measured fluorescence is directly proportionate to the number of viable cells. A comparison of the total fluorescence of a drug-treated cell population to the fluorescence of a similar number of untreated cells yields a survival fraction. In brief, 2000 to 10,000 cells/well (depending on size and growth rates) are replicate plated into 60 wells of a 96-well tissue culture plate in 0.1 mL of whole medium and allowed to attach overnight. Drug(s) are then added in 0.05 mL of whole medium to the final concentrations indicated. Drugs (fenretinide, and various chain length L-threo-sphinganines) were tested both as single agents and in a 3:1 ratio of fenretinide:sphinganine. C18-L-threo-sphinganine, or “safingol,” was also tested and results shown for reference. There are 12 wells treated per drug concentration. Twelve wells receive drug vehicle-only to the appropriate final concentration and serve as controls for the plate. Cells are incubated for 96 hours at 37° C. in ambient air with 5% CO2. Fluorescein diacetate is then added to each well in 0.05 mL media to a final concentration of 8 microgram/mL. Cells are incubated for a further 15 minutes at 37° C. and 0.03 mL of 0.5% eosin Y is added to each well. Total fluorescence of viable cells is then measured by digital imaging microscopy. Results were graphed as the ratio of the fluoresecence of drug-treated wells to non-drug treated control wells (i.e., Survival Fraction). All tests were performed at least twice. Representative results are shown.
(§2) The Combination Index (CI) is a term to describe mathematical modeling of the pharmacologic effects on cytotoxicity (cell death) of two drugs in combination based. Cytotoxic “synergy” is defined as a cell death affect which is greater than would be expected from a simple product of the single agent cytotoxicities alone (i.e. an “additive” effect). By Chou-Talalay analysis, a CI<0.9 on a Fraction Affected (“Fa”, i.e. fraction of cells killed) indicates synergy, with smaller numbers indicating greater synergy; a CI of 0.9-1.1 signifies an additive or near-additive effect; and a CI>1.1 means the drug combination is antagonistic.
Fenretinide and L-threo-sphinganines tested in human prostate adenocarcinoma (prostate cancer) cell line, LNCaP.

[2] = test system: COG-LL-317 acute lymphoblastic leukemia cell line; test: DIMSCAN cytotoxicity, fenretinide + L-threo-sphinganines 3:1 (Example B20)
Procedure: as §1, §2
(§3) Fenretinide and L-threo-sphinganines tested in human acute lymphoblastic leukemia (pediatric ALL, a blood cancer) cell lines, COG-LL-317 and MOLT-4.

[3] = test system: MOLT-4 acute lymphoblastic leukemia cell line; test: as above
Procedure: as §1, §2, §3

[4] = test system: HT-29 colon cancer cell line; test: DIMSCAN cytotoxicity dose-response with fenretinide, with or without D-threo-PPMP (Examples A, FIGS. 4, 10, 15, 21-23); conditions: +96 hrs; for C.I. (Combination Index) with fenretinide: at one or more doses; for C.I. of D-threo-PPMP with fenretinide+L-threo-sphinganine (three drug combination): D-threo-PPMP fixed 10 uM, at most doses
Procedure: (§4) Cytotoxicity Assay: Cytotoxicity in cell lines was determined using a fluorescence-based assay employing digital imaging microscopy (DIMSCAN)(after Fragala, et al, Mol Cancer Ther, 6:886-897, 2007). DIMSCAN quantitates viable cells which selectively accumulate fluorescein diacetate and is capable of measuring cytotoxicity over a 4-5 log dynamic range by quantifying total fluorescence per well (which is proportional to viable, clonogenic cells) after eliminating background fluorescence using digital thresholding and eosin Y quenching. Briefly, cell lines were seeded into 96-well plates in 100 µL of complete culture medium (10-20% serum) per well. Cells were incubated overnight in 2%, 5% or 20% oxygen (room air) prior to addition of drugs in […] volumes of complete medium to various final drug concentrations in replicates of 12 wells per concentration. In assays employing D-threo-PPMP, PPMP was employed at a fixed, minimally-toxic, final concentration of 10 μM in each well. Control wells received ethanol (final concentration=0.12%-0.20%) in complete medium equivalent to the maximum final ethanol concentration of drug-treated wells. Plates were incubated at various oxygen concentrations to simulate physiological hypoxia (i.e., 2% oxygen=typical solid tumor oxygen levels; 5%=bone marrow oxygen levels for leukemias; 20% room air=supraphysiological oxygen for comparison with typical laboratory culture conditions). Plates were assayed at 3-4 days after initiating drug exposure depending on the growth properties of each cell line, to allow for maximum cell death and outgrowth of surviving cells. To measure cytotoxicity, FDA (stock solution of 1 mg/ml in DMSO) was added, in 50 µL of complete medium per well, to a final concentration of 10 µg/ml. The plates were incubated for an additional 15-30 minutes at 37 C and then 30 µL of eosin Y (0.5% in normal saline) was added per well. Total fluorescence of each well was then measured using digital imaging microscopy.
FIGS. 1 to 26 illustrate the effect (Examples A1 through A26) of the claimed invention and were carried out using the procedures disclosed herein.

[5] = test system: CHLA-266 brain cancer (PNET) cell line; test: DIMSCAN cytotoxicity dose-response with fenretinide (Examples A, FIGS. 2, 8, 13); conditions: 2% oxygen, at one or more doses, +96 hrs
Procedure: as §4, with “microscopy. […]” for “microscopy.”

[6] = test system: MCF-7/ADR (OVCAR-8/ADR) ovarian cancer cell line; test: DIMSCAN cytotoxicity dose-response with fenretinide (Examples A, FIG. 16); conditions: 2% oxygen, at one or more doses, +96 hrs
Procedure: Cytotoxicity Assay: Cytotoxicity in cell lines was determined using a fluorescence-based assay employing digital imaging microscopy (DIMSCAN)(after Fragala, et al, Mol Cancer Ther, 6:886-897, 2007). DIMSCAN quantitates viable cells which selectively accumulate fluorescein diacetate and is capable of measuring cytotoxicity over a 4-5 log dynamic range by quantifying total fluorescence per well (which is proportional to viable, clonogenic cells) after eliminating background fluorescence using digital thresholding and eosin Y quenching. Briefly, cell lines were seeded into 96-well plates in 100 µL of complete culture medium (10-20% serum) per well. Cells were incubated overnight in 2%, 5% or 20% oxygen (room air) prior to addition of drugs in […] volumes of complete medium to various final drug concentrations in replicates of 12 wells per concentration. In assays employing D-threo-PPMP, PPMP was employed at a fixed, minimally-toxic, final concentration of 10 μM in each well. Control wells received ethanol (final concentration=0.12%-0.20%) in complete medium equivalent to the maximum final ethanol concentration of drug-treated wells. […] Total fluorescence of each well was then measured using digital imaging microscopy. […]

[7] = 4-HPR 1.5 μM + L-threo-sphinganine 0.5 μM
[8] = 4-HPR 3 μM + L-threo-sphinganine 1 μM
[9] = 4-HPR 6 μM + L-threo-sphinganine 2 μM
[10] = 4-HPR 9 μM + L-threo-sphinganine 3 μM
[11] = 4-HPR 12 μM + L-threo-sphinganine 4 μM

**Q.** What does the source list for `CCCCCCCCC[C@H](O)[C@@H](N)CO` [C12]?
**A.** CI [1, 7]: 0.5; Fa [1, 7]: 0.870; CI [1, 8]: 0.3; Fa [1, 8]: 0.982; CI [1, 9]: 0.4; Fa [1, 9]: 0.996; CI [1, 10]: 0.4; Fa [1, 10]: 0.999

**Q.** Which CI [2, 8] does the source give for `CCCCCCCCCCCCCC[C@H](O)[C@@H](N)CO` [C17, (2S,3S)-2-amino-1,3-heptadecanediol] here?
**A.** 0.8

**Q.** And the Fa [2, 8]?
**A.** 0.993

**Q.** And the CI [2, 9]?
**A.** 1.3

**Q.** And the Fa [2, 9]?
**A.** 0.9993

**Q.** And the CI [2, 10]?
**A.** 0.5

**Q.** And the Fa [2, 10]?
**A.** 0.9999

**Q.** And the Fa [2, 11]?
**A.** 1

**Q.** And the CI [3, 8]?
**A.** 1.0

**Q.** And the Fa [3, 8]?
**A.** 0.807

**Q.** What about the CI [3, 9] of the same molecule?
**A.** 0.7

**Q.** And the Fa [3, 9]?
**A.** 0.998

**Q.** What about the CI [3, 10] of the same molecule?
**A.** 0.8

**Q.** And the Fa [3, 10]?
**A.** 0.999

**Q.** And the Fa [3, 11]?
**A.** 1

**Q.** And the “C.I. (Combination Index) with fenretinide” value (“C.I. (Combination Index)” for short) ([4]; 2% oxygen)?
**A.** < 1

**Q.** And the “C.I. of D-threo-PPMP with fenretinide+L-threo-sphinganine (three drug combination)” value ([4]; 20% oxygen)?
**A.** < 1

**Q.** What about the “C.I. (Combination Index)” value [5] of the same molecule?
**A.** < 1

**Q.** And the CI [1, 7]?
**A.** 0.3

**Q.** And the Fa [1, 7]?
**A.** 0.887

**Q.** What about the CI [1, 8] of the same molecule?
**A.** 0.3

**Q.** And the Fa [1, 8]?
**A.** 0.967

**Q.** And the CI [1, 9]?
**A.** 0.2

**Q.** What about the Fa [1, 9] of the same molecule?
**A.** 0.991

**Q.** And the CI [1, 10]?
**A.** 0.1

**Q.** And the Fa [1, 10]?
**A.** 0.999

**Q.** What does the source list for `CCCCCCCCCCCCCCC[C@H](O)[C@@H](N)CO` [C18, (2S,3S)-2-amino-1,3-octadecanediol, reference compound]?
**A.** CI [2, 8]: 0.8; Fa [2, 8]: 0.998; CI [2, 9]: 0.6; Fa [2, 9]: 0.9994; CI [2, 10]: 0.8; Fa [2, 10]: 0.9996; Fa [2, 11]: 1; CI [3, 8]: 0.9; Fa [3, 8]: 0.829; CI [3, 9]: 0.7; Fa [3, 9]: 0.998; CI [3, 10]: 0.8; Fa [3, 10]: 0.999; Fa [3, 11]: 1; CI [1, 7]: 0.9; Fa [1, 7]: 0.752; CI [1, 8]: 0.3; Fa [1, 8]: 0.971; CI [1, 9]: 0.1; Fa [1, 9]: 0.998; CI [1, 10]: 0.1; Fa [1, 10]: 0.999

**Q.** Which results are given for `CCCCCCCCCCCCCCCC[C@H](O)[C@@H](N)CO` [C19, (2S,3S)-2-amino-1,3-nonadecanediol]?
**A.** CI [2, 8]: 0.8; Fa [2, 8]: 0.9980; CI [2, 9]: 0.4; Fa [2, 9]: 0.9999; Fa [2, 10]: 1.0000; Fa [2, 11]: 1.0000; CI [3, 8]: 1.0; Fa [3, 8]: 0.797; CI [3, 9]: 0.8; Fa [3, 9]: 0.996; CI [3, 10]: 0.8; Fa [3, 10]: 0.999; Fa [3, 11]: 1; C.I. of D-threo-PPMP with fenretinide+L-threo-sphinganine (three drug combination) ([4]; 20% oxygen): < 1; C.I. (Combination Index) with fenretinide ([4]; oxygen not stated): < 1; C.I. (Combination Index) with fenretinide [5]: < 1; CI [1, 7]: 1.0; Fa [1, 7]: 0.697; CI [1, 8]: 0.5; Fa [1, 8]: 0.980; CI [1, 9]: 0.5; Fa [1, 9]: 0.999; CI [1, 10]: 0.2; Fa [1, 10]: 1.000

**Q.** For `CCCCCCCCCCCCCCCCC[C@H](O)[C@@H](N)CO` [C20, (2S,3S)-2-amino-1,3-icosanediol], which “C.I. (Combination Index)” value [6] is on record?
**A.** < 1

**Q.** What about the CI [2, 8] of the same molecule?
**A.** 0.2

**Q.** What about the Fa [2, 8] of the same molecule?
**A.** 0.9999

**Q.** And the CI [2, 9]?
**A.** 0.3

**Q.** And the Fa [2, 9]?
**A.** 1

**Q.** And the Fa [2, 10]?
**A.** 1

**Q.** And the Fa [2, 11]?
**A.** 1

**Q.** And the CI [3, 8]?
**A.** 0.9

**Q.** What about the Fa [3, 8] of the same molecule?
**A.** 0.878

**Q.** And the CI [3, 9]?
**A.** 0.8

**Q.** What about the Fa [3, 9] of the same molecule?
**A.** 0.996

**Q.** And the CI [3, 10]?
**A.** 0.8

**Q.** What about the Fa [3, 10] of the same molecule?
**A.** 0.999

**Q.** What about the Fa [3, 11] of the same molecule?
**A.** 1

**Q.** And the “C.I. of D-threo-PPMP with fenretinide+L-threo-sphinganine (three drug combination)” value ([4]; 2% oxygen)?
**A.** < 1

**Q.** What about the “C.I. (Combination Index)” value ([4]; oxygen not stated) of the same molecule?
**A.** < 1

**Q.** What about the “C.I. (Combination Index)” value [5] of the same molecule?
**A.** < 1

**Q.** What about the CI [1, 7] of the same molecule?
**A.** 0.7

**Q.** And the Fa [1, 7]?
**A.** 0.812

**Q.** And the CI [1, 8]?
**A.** 0.4

**Q.** What about the Fa [1, 8] of the same molecule?
**A.** 0.987

**Q.** What about the CI [1, 9] of the same molecule?
**A.** 0.7

**Q.** What about the Fa [1, 9] of the same molecule?
**A.** 0.993

**Q.** And the CI [1, 10]?
**A.** 0.8

**Q.** What about the Fa [1, 10] of the same molecule?
**A.** 0.999

— patent publication US20110152267A1, “Compositions and Methods for Treating Hyperproliferative Disorders” (Texas Tech University System, priority 2009, published 2011)
